Laboratory results as given in publication PMC7026418, “The kinase polypharmacology landscape of clinical PARP inhibitors” (Scientific Reports, 2020).
Where two headings read alike, the source gives them in different places.

What was measured:
Assay in all cases: biochemical
Set-up in all cases: DiscoveRx KINOMEscan active site-directed competition binding; percent of control kinase bound to immobilised ligand
DDR2 = biological target: T1, DDR2 (Homo sapiens, UniProt Q16832)
T1 sequence (Q16832 1-855): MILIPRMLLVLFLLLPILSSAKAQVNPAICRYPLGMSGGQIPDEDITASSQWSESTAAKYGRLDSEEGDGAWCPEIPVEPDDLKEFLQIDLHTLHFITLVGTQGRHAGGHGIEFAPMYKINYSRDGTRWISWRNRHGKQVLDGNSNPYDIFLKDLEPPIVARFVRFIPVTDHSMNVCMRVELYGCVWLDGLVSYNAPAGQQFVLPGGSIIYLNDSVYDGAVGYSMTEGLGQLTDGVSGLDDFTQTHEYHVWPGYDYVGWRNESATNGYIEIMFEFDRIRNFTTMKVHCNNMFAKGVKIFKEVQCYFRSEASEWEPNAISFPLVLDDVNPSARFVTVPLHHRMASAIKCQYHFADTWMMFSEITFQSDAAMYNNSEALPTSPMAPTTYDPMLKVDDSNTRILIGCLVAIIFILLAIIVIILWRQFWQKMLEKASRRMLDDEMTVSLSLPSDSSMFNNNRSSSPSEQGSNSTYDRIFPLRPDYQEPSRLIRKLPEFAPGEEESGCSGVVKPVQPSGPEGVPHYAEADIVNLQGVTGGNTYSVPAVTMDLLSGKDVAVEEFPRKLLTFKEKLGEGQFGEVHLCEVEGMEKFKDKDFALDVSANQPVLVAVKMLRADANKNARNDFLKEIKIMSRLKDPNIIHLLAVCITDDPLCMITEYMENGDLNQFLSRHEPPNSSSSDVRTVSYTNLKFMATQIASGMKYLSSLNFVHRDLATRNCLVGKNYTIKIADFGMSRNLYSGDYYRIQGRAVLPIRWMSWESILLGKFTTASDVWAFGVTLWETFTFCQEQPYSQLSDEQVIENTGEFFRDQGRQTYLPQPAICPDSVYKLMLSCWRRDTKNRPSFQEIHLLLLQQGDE

ERK3 = biological target: T2, ERK3 (Homo sapiens, UniProt Q16659)
T2 construct: gene MAPK6

JNK1 = biological target: T3, JNK1 (Homo sapiens, UniProt P45983)
T3 construct: gene MAPK8

MET(M1250T) = MET(M1250T) (Homo sapiens, UniProt P08581, M1250T)
PIK3C2G = biological target: T4, PIK3C2G (Homo sapiens, UniProt O75747)
T4 sequence (O75747 1-1486): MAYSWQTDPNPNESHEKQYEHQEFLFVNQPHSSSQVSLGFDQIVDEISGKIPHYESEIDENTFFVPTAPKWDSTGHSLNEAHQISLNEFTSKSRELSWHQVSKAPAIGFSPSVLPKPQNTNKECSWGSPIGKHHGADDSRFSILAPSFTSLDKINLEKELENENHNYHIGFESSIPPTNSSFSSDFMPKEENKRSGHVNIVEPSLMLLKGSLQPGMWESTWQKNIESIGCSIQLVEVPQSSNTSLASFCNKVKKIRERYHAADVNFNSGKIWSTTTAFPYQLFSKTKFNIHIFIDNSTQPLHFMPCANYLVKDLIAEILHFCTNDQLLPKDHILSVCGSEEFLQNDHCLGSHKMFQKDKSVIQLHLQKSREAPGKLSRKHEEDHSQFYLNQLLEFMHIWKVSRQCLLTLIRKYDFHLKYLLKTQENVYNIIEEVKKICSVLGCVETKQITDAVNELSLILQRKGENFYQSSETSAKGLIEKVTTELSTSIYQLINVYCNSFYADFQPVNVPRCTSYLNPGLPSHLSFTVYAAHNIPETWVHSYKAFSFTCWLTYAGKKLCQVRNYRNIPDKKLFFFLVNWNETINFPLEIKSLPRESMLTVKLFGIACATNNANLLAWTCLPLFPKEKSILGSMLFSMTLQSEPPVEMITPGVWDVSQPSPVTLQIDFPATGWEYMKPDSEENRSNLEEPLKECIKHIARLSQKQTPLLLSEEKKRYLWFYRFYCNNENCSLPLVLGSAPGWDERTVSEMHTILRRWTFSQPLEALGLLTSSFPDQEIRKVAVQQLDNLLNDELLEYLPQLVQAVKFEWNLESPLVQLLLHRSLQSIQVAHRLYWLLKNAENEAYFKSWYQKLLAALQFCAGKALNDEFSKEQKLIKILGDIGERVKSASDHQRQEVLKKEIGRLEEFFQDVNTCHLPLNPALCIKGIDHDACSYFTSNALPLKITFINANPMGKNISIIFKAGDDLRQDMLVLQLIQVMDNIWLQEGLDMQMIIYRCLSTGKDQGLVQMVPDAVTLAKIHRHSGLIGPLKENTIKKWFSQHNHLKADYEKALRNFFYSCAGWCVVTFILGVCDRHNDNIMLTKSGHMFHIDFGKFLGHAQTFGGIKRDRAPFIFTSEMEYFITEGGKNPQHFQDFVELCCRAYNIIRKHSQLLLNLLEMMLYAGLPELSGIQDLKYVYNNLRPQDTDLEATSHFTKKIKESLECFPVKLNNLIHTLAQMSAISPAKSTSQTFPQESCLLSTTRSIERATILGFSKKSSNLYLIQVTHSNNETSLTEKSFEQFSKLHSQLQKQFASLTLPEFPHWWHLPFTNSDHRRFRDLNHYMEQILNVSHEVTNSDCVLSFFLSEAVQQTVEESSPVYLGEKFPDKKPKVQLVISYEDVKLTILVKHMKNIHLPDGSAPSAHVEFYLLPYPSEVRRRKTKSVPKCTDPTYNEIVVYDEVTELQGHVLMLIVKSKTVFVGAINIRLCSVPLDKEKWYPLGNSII

PIK4CB = biological target: T5, PIK4CB (Homo sapiens, UniProt Q9UBF8)
T5 construct: gene PI4KB

SRMS = SRMS (Homo sapiens, UniProt Q9H3Y6)
[1] = read-out: Niraparib (MK-4827) / %Ctrl @ 10000nM
[2] = read-out: Olaparib / %Ctrl @ 10000nM
[3] = read-out: Rucaparib / %Ctrl @ 10000nM, binding competition, % of control
[4] = read-out: Talazoparib (BMN 673) / %Ctrl @ 10000nM

Chain of SRMS (Q9H3Y6 whole entry): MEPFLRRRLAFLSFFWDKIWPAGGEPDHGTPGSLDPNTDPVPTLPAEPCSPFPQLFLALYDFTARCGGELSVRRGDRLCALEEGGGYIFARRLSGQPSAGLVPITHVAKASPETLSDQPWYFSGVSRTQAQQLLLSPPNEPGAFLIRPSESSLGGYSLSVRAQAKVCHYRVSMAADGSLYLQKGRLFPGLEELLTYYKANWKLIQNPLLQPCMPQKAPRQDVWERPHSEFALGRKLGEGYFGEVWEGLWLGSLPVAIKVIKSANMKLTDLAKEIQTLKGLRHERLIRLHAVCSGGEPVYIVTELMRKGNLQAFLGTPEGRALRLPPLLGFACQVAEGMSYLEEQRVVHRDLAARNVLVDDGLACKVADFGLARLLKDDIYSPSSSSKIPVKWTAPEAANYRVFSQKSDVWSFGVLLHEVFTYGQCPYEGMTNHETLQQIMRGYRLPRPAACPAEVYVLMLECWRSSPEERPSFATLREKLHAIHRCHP
Chain of MET(M1250T) (P08581 whole entry M1250T): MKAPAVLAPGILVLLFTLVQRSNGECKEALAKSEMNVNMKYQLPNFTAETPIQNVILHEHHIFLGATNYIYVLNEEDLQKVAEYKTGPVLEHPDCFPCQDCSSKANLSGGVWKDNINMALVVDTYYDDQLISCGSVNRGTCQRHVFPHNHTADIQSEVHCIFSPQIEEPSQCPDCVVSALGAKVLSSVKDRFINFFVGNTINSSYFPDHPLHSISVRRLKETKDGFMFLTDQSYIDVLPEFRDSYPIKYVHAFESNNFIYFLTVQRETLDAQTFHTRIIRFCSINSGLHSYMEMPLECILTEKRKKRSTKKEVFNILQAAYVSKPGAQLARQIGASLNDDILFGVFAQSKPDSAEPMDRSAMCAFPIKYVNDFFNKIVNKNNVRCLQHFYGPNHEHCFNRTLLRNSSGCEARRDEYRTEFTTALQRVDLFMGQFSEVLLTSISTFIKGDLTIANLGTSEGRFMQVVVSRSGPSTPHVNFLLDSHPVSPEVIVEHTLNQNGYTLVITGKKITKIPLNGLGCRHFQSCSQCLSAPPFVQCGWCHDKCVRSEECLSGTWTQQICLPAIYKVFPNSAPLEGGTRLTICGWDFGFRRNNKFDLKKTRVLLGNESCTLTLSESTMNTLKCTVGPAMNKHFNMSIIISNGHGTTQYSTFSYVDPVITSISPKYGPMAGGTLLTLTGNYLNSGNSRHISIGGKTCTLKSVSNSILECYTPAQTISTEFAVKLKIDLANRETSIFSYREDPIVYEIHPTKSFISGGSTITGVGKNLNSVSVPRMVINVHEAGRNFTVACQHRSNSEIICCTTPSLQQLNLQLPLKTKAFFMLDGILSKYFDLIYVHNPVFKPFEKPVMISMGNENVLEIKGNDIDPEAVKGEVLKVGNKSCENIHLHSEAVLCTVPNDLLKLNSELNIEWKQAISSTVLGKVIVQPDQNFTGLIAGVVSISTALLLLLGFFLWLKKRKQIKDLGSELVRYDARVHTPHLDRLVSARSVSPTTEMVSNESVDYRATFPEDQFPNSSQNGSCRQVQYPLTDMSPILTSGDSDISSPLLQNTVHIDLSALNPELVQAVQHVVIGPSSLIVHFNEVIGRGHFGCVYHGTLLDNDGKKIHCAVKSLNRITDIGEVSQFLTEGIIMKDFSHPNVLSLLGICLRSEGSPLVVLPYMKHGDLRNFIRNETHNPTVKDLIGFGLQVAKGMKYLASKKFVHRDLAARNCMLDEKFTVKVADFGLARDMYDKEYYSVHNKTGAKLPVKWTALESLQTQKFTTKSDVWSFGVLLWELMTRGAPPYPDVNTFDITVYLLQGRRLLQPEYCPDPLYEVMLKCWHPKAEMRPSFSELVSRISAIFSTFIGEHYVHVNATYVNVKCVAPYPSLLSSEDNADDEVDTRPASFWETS
T5 sequence (Q9UBF8 whole entry): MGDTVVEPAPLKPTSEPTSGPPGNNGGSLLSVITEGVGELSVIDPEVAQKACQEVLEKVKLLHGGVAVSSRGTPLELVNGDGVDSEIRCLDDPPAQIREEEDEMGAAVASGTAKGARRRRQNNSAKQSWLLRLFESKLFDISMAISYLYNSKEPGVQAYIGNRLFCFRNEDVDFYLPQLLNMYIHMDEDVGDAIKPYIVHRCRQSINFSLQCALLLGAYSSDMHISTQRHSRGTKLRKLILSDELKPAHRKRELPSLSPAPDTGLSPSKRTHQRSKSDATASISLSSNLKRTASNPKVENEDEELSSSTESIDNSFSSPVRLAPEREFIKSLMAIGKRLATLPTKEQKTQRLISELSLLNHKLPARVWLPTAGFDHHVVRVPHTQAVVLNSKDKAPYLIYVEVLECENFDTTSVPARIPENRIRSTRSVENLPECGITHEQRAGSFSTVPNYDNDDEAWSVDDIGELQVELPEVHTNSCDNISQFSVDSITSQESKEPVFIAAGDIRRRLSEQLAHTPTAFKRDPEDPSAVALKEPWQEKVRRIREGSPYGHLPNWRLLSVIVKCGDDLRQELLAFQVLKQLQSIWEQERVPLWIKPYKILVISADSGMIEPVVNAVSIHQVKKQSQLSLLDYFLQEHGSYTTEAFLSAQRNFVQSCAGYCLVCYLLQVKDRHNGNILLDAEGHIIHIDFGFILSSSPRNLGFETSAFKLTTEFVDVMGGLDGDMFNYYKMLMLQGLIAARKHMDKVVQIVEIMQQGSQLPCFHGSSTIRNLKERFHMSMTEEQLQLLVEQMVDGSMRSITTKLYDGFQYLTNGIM
T3 sequence (P45983 whole entry): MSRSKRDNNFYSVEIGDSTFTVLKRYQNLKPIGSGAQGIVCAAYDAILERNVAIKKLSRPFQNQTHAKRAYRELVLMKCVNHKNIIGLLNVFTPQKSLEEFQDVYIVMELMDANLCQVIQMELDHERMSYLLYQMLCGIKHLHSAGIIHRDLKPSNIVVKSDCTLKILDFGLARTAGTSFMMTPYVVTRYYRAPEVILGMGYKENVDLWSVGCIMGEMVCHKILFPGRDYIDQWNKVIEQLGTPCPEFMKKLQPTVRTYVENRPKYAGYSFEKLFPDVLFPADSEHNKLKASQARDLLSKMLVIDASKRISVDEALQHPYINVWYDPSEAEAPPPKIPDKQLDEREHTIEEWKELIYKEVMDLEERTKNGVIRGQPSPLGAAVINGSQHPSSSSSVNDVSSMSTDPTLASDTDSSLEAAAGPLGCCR
T2 sequence (Q16659 whole entry): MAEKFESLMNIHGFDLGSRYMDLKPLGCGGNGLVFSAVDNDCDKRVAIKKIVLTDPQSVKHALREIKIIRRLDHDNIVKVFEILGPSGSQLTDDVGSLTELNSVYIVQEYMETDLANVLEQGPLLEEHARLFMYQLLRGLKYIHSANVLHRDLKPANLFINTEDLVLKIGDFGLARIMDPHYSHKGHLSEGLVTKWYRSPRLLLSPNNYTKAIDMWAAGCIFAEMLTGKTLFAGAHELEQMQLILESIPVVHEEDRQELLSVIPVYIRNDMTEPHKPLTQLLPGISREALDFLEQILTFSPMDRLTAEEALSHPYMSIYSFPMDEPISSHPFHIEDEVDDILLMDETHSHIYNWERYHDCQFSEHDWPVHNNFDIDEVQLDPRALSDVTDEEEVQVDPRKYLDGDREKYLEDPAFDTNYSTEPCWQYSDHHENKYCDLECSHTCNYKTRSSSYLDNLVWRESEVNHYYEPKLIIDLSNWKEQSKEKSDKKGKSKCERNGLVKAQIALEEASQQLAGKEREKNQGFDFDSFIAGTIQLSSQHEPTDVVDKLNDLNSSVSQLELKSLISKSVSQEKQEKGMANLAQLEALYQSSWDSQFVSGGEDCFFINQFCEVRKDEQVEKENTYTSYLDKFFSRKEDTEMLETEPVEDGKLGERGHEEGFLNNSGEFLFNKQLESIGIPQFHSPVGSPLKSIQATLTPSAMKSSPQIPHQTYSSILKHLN

## NC(=O)c1cccc2cn(-c3ccc([C@@H]4CCCNC4)cc3)nc12 [Niraparib]
DDR2; [1]
  percent of control binding at 10 µM: 90%
ERK3; [1]
  percent of control binding at 10 µM: 81%
JNK1; [1]
  percent of control binding at 10 µM: 85%
MET(M1250T); [1]
  percent of control binding at 10 µM: 91%
PIK3C2G; [1]
  percent of control binding at 10 µM: 79%
PIK4CB; [1]
  percent of control binding at 10 µM: 94%
SRMS; [1]
  percent of control binding at 10 µM: 100%

## O=C(c1cc(Cc2n[nH]c(=O)c3ccccc23)ccc1F)N1CCN(C(=O)C2CC2)CC1 [Olaparib]
DDR2; [2]
  percent of control binding at 10 µM: 92%
ERK3; [2]
  percent of control binding at 10 µM: 95%
JNK1; [2]
  percent of control binding at 10 µM: 98%
MET(M1250T); [2]
  percent of control binding at 10 µM: 99%
PIK3C2G; [2]
  percent of control binding at 10 µM: 82%
PIK4CB; [2]
  percent of control binding at 10 µM: 94%
SRMS; [2]
  percent of control binding at 10 µM: 92%

## CNCc1ccc(-c2[nH]c3cc(F)cc4c3c2CCNC4=O)cc1 [Rucaparib]
DDR2; [3]
  percent of control binding at 10 µM: 89%
ERK3; [3]
  percent of control binding at 10 µM: 90%
JNK1; [3]
  percent of control binding at 10 µM: 65%
MET(M1250T); [3]
  percent of control binding at 10 µM: 99%
PIK3C2G; [3]
  percent of control binding at 10 µM: 73%
PIK4CB; [3]
  percent of control binding at 10 µM: 78%
SRMS; [3]
  percent of control binding at 10 µM: 79%

## Cn1ncnc1[C@H]1c2n[nH]c(=O)c3cc(F)cc(c23)N[C@@H]1c1ccc(F)cc1 [Talazoparib]
DDR2; [4]
  percent of control binding at 10 µM: 100%
ERK3; [4]
  percent of control binding at 10 µM: 100%
JNK1; [4]
  percent of control binding at 10 µM: 79%
MET(M1250T); [4]
  percent of control binding at 10 µM: 99%
PIK3C2G; [4]
  percent of control binding at 10 µM: 81%
PIK4CB; [4]
  percent of control binding at 10 µM: 81%
SRMS; [4]
  percent of control binding at 10 µM: 100%
